Results taken from paper PMC4684500, “Diversity, Antimicrobial Action and Structure-Activity Relationship of Buffalo Cathelicidins” (PLoS ONE, 2015).
≈ marks a conversion by molar mass, not a printed value. Where two headings read alike, the source gives them in different places. Where no end group is shown, it is not given here.

Key:
S. aureus biofilm = experiment: Biofilm assay (crystal violet); format: cell-based, Staphylococcus aureus; conditions: peptide at 1× and 2× MIC, 24 h 37°C, crystal violet A570
Protocol: (§1) The efficacy of peptides against biofilms of S. aureus and P. aeruginosa was determined using previously described method. Overnight grown bacterial cultures were diluted (1:100) and 200 μl suspensions were mixed with each peptide (1× and 2× MIC) in a 96 well plate and incubated for 24 h at 37°C. Biofilms were fixed with paraformadehyde solution, cultures were decanted and 0.1% crystal violet solution was added to stain the film. The plate was rinsed thrice with water and air-dried. The stain was dissolved by 100 μl of acetic acid (30%) and absorbance was measured at 570 nm. The experiment was performed in triplicate, 30% acetic acid was taken as a blank.

[1] = system: Acinetobacter johnsonii NCDC-0072; format: cell-based
Protocol: (§2) The buCATHL4 peptides were synthesized by G L Biochem (Shanghai, China). Purity and molecular mass of the peptides were provided by the vendors using HPLC and mass spectrometry, respectively. The purity of all peptides were >98%. Minimum inhibitory concentrations (MIC) of buCATHL4s against the pathogenic microorganisms were tested by broth micro-dilution technique. Briefly, bacteria were grown in Mueller Hinton broth (Sigma-Aldrich, MO, USA) at 37°C. The OD of early-log phase cultures were adjusted to 0.08–0.1 and further diluted (1:200) to keep inoculums concentration nearly 10^6 colony forming units (CFU)/ml. Diluted peptides (10 μl) were mixed with equi-volume solution A (0.02% acetic acid containing 0.4% BSA) and were serially diluted in the solution B (0.01% acetic acid containing 0.2% BSA). Bacterial inoculums (90 μl) were mixed with serially diluted peptides and incubated at 37°C for 24 h without shaking. […] All peptides were tested in triplicate. For time kill kinetics experiments, peptides (1×, 2× and 4× MIC) were added to bacterial suspension of Staphylococcus aureus, Salmonella enterica and Pseudomonas aeruginosa, as described in the MIC determination method. Aliquots of representative wells were diluted and plated on Muller Hinton agar plates at 0, 1, 4, 12 and 24 h intervals. Water with 0.01% acetic acid and ampicillin (100 mg/ml) were taken as […] controls, respectively. The results were represented as log CFU/ml.

[2] = system: Salmonella typhimurium ATCC-14028; format: cell-based
Protocol: as §2

[3] = system: Bacillus cereus NCDC-0240; format: cell-based
Protocol: as §2

[4] = system: Listeria monocytogenes ATCC-19111; format: cell-based
Protocol: as §2

[5] = system: Escherichia coli MTCC-0723; format: cell-based
Protocol: as §2

[6] = system: Pseudomonas aeruginosa ATCC-27853; format: cell-based
Protocol: as §2

[7] = system: Pseudomonas aeruginosa NCDC-0105; format: cell-based
Protocol: as §2

P. aeruginosa biofilm = experiment: Biofilm assay (crystal violet); format: cell-based, Pseudomonas aeruginosa; conditions: 24 h 37°C, crystal violet A570
Protocol: as §1

[8] = system: Stahylococcus aureus ATCC-29213; format: cell-based, Staphylococcus aureus
Protocol: as §2

[9] = system: Stahylococcus aureus NCDC-0111; format: cell-based, Staphylococcus aureus
Protocol: as §2

S. aureus [10] = experiment: LIVE/DEAD BacLight membrane permeability assay; format: cell-based, Staphylococcus aureus; conditions: peptide 200μM, log phase culture, SYTO9/PI
Protocol: (§3) The damage to bacterial membrane following addition of peptide was assessed by BacLight kit (Life Technologies, CA, USA). Aliquots of S. aureus, S. enterica and P. aeruginosa cultures from exponential (shaking incubation for 2, 3, and 4 h, respectively) and stationary phases (overnight incubation) were harvested by centrifugation (5000 g for 10 min) and diluted in PBS. Peptides (200μM) were added to bacterial suspension and 50 μl aliquots were removed immediately or after 1 h incubation. Equi-volume mixtures of SYTO9/PI (3 μl/ml bacterial suspension) were added to these aliquots and fluorescent micrographs of stained bacteria were taken at 1000×magnification in a microscope (Olympus BX51 fitted with DP71 camera) with a fluorescence illuminator system.

S. aureus [11] = experiment: Time kill kinetics; format: cell-based, Staphylococcus aureus; conditions: for Time to complete elimination of S. aureus: peptide at 4× MIC, time kill kinetics; for Growth inhibition of S. aureus in time kill kinetics: peptide at 2× MIC, plating at 0, 1, 4, 12, 24 h
Protocol: as §2

[12] = system: bacterial biofilm (S. aureus and P. aeruginosa); experiment: Biofilm assay, overall statement; format: cell-based; conditions: summary in discussion
Protocol: as §1

[13] = system: S. aureus, S. typhimurium and P. aeruginosa; experiment: Time kill kinetics, three pathogens; format: cell-based; conditions: peptide at 4× MIC
Protocol: as §2

S. aureus [14] = experiment: Scanning and transmission electron microscopy; format: cell-based, Staphylococcus aureus
Protocol: (§4) Early log phase cultures of S. aureus and S. enterica were subjected to different concentration of peptides and incubated at 37°C. The bacterial pellets after centrifugation (5000 g for 10 min) were washed with 0.1M cacodylate buffer (pH 7.2) and were fixed in 2.5% gluteraldehyde at 4°C for 2 h. For scanning electron microscopy, bacteria were dehydrated using gradient series of ethanol wash (30, 50, 70, 90 and absolute). The samples were air-dried overnight, gold coated (Eiko IB-3 ion coater), and viewed in a Zeiss EVO 18 Special Edition SEM. For transmission electron microscopy, fixed samples were adhered to hexagonal PELCO® Grids (Ted Pella, Inc. USA), washed once with Mili-Q water and stained with uranyl acetate (2%) buffer. Samples were viewed in a JEM 1011 (Jeol, Japan) microscope.

S. typhimurium [15] = experiment: Scanning and transmission electron microscopy; format: cell-based, Salmonella typhimurium; conditions: for Morphological change of S. typhimurium cells (SEM/TEM): increasing concentrations (>2× MIC)
Protocol: as §4

S. typhimurium [16] = experiment: LIVE/DEAD BacLight membrane permeability assay; format: cell-based, Salmonella typhimurium; conditions: peptide 200μM, SYTO9/PI; for Clumping (agglutination) of S. typhimurium after peptide addition: log phase culture; for Membrane permeability of latent (stationary phase) S. typhimurium: stationary phase culture, proportion of cells affected comparatively less
Protocol: as §3

[17] = increasing concentrations (>2× MIC)

Compound | Reduction in biofilm growth of S. aureus (S. aureus biofilm) | Reduction in biofilm growth of P. aeruginosa (P. aeruginosa biofilm; peptide at 1× and 2× MIC) | Clumping (agglutination) of S. aureus after peptide addition (S. aureus [10]) | Time to complete elimination of S. aureus (S. aureus [11]) | Effect against growth of bacterial biofilms (overall) [12] | MIC ([1]; 24 h) | MIC ([2]; ATCC-14028, 24 h) | MIC ([3]; NCDC-0240, 24 h) | MIC ([4]; ATCC-19111, 24 h) | MIC ([5]; MTCC-0723, 24 h) | MIC ([6]; ATCC-27853, 24 h) | MIC ([7]; NCDC-0105, 24 h) | Killing rate compared with indolicidin and ampicillin [13] | Morphological change of S. aureus cells (SEM/TEM) (S. aureus [14]; [17]) | Morphological change of S. aureus cells (SEM/TEM) (S. aureus [14]; lower concentrations (≤2× MIC)) | Morphological change of S. typhimurium cells (SEM/TEM) (S. typhimurium [15]) | Clumping (agglutination) of S. typhimurium after peptide addition (S. typhimurium [16]) | MIC ([8]; ATCC-29213, 24 h) | MIC ([9]; 24 h) | Growth inhibition of S. aureus in time kill kinetics (S. aureus [11]) | other results
CC[C@H](C)[C@H](N)C(=O)N[C@@H](CC(C)C)C(=O)N1CCC[C@H]1C(=O)N[C@@H](Cc1c[nH]c2ccccc12)C(=O)N[C@@H](CCCCN)C(=O)N[C@@H](Cc1c[nH]c2ccccc12)C(=O)N1CCC[C@H]1C(=O)N[C@@H](Cc1c[nH]c2ccccc12)C(=O)N[C@@H](Cc1c[nH]c2ccccc12)C(=O)N1CCC[C@H]1C(=O)N[C@@H](Cc1c[nH]c2ccccc12)C(=O)N[C@@H](CCCNC(=N)N)C(=O)N[C@@H](CCCNC(=N)N)C(N)=O [Indolicidin, indolicidin, reference compound] | effective | effective |  |  |  |  |  |  |  |  |  |  |  |  |  |  |  |  |  |  | MIC ([1]; Acinetobacter johnsonii NCDC-0072, broth microdilution, Mueller Hinton broth, ~10^6 CFU/ml, 37°C 24 h, no visible turbidity, triplicate): 6 µM (≈ 11.4 µg/mL); MIC ([2]; Salmonella typhimurium ATCC-14028, broth microdilution, Mueller Hinton broth, ~10^6 CFU/ml, 37°C 24 h, no visible turbidity, triplicate): 12.5 µM (≈ 23.8 µg/mL); MIC ([3]; Bacillus cereus NCDC-0240, broth microdilution, Mueller Hinton broth, ~10^6 CFU/ml, 37°C 24 h, no visible turbidity, triplicate): 0.8 µM (≈ 1.53 µg/mL); MIC ([4]; Listeria monocytogenes ATCC-19111, broth microdilution, Mueller Hinton broth, ~10^6 CFU/ml, 37°C 24 h, no visible turbidity, triplicate): 6 µM (≈ 11.4 µg/mL); MIC ([5]; Escherichia coli MTCC-0723, broth microdilution, Mueller Hinton broth, ~10^6 CFU/ml, 37°C 24 h, no visible turbidity, triplicate): 0.8 µM (≈ 1.53 µg/mL); MIC ([6]; Pseudomonas aeruginosa ATCC-27853, broth microdilution, Mueller Hinton broth, ~10^6 CFU/ml, 37°C 24 h, no visible turbidity, triplicate): 25 µM (≈ 47.7 µg/mL); MIC ([7]; Pseudomonas aeruginosa NCDC-0105, broth microdilution, Mueller Hinton broth, ~10^6 CFU/ml, 37°C 24 h, no visible turbidity, triplicate): 12.5 µM (≈ 23.8 µg/mL); MIC ([8]; Stahylococcus aureus ATCC-29213, broth microdilution, Mueller Hinton broth, ~10^6 CFU/ml, 37°C 24 h, no visible turbidity, triplicate): 3 µM (≈ 5.72 µg/mL); MIC ([9]; Stahylococcus aureus NCDC-0111, broth microdilution, Mueller Hinton broth, ~10^6 CFU/ml, 37°C 24 h, no visible turbidity, triplicate): 1.5 µM (≈ 2.86 µg/mL)
AIPWSIWWHLLFKG [buCATHL4G] |  |  | immediate clumping | 4 h | no marked effect | 25 µM | 3 µM | 50 µM | 1.5 µM | 50 µM | 200 µM | 200 µM | comparatively better killing rate | budding | swelling and blebing | budding | immediate clumping | 0.8 µM | 12.5 µM |  | 
AIPWSIWWRLLFKG [buCATHL4F] |  |  | immediate clumping | 4 h | no marked effect | 200 µM | 0.2 µM | 100 µM | 3 µM | >200 µM | 100 µM | 50 µM |  | budding | swelling and blebing | budding | immediate clumping | 6 µM | 6 µM | complete growth inhibition | Membrane permeability of latent (stationary phase) S. typhimurium (S. typhimurium [16]): affected membrane permeability; Reduction in biofilm growth of P. aeruginosa (P. aeruginosa biofilm; peptide at 2× MIC): considerably
GLPWILLRWLFFRG [buCATHL4A] |  |  |  |  |  | 200 µM | 100 µM | 100 µM | 6 µM | 200 µM | >200 µM | >200 µM |  |  |  |  |  | 3 µM | 25 µM |  | 
RIRFPWPWRWPWWPRFRG [buCATHL4D] | substantial | substantial |  |  |  | 50 µM | 50 µM | 1.5 µM | 6 µM | 6 µM | 25 µM | 50 µM | comparatively better killing rate |  |  |  |  | 6 µM | 12.5 µM | complete growth inhibition | Formation of negative curvature on membrane (SEM/TEM) (S. typhimurium [15]; more evident with S. typhimurium): Formation of negative curvature; Membrane permeability of latent (stationary phase) S. typhimurium (S. typhimurium [16]): affected membrane permeability
